# Laboratory results published in patent US20140213538A1, “LYSOPHOSPHATIDIC ACID RECEPTOR ANTAGONISTS” (InterMune, Inc., priority 2013, published 2014).
# Legend:
# [1] = target: T1, LPA/S1P GPCR of interest (Homo sapiens, UniProt Q92633); assay: Beta-Arrestin based assay (PathHunter); assay type: cell-based
# T1 construct: host or cells: CHO
# In short: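 EA Parental CHO cells (DiscoverX) were transfected with FuGENE (Roche) using CMV promoter-driven DNA constructs encoding the LPA/S1P GPCR of interest fused to a ProLink tag. Beta-arrestin recruitment in agonist mode was assessed 24-48 hrs later with PathHunter kits. Tests ran in quadruplicate in white 384 well plates, and end point luminescence was fit to a 4 parameter logistic function.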
# [2] = target: LPA1 (Homo sapiens, UniProt Q92633); assay: LPA1 Migration Assay (Oris); assay type: cell-based; set-up: host or cells: primary fibroblasts (lung, dermal), HFL-1, 3T3 and CHO cells expressing LPA1R; settings: read-out: Cell Migration EC50
# LPA1, sequence (Q92633 whole entry): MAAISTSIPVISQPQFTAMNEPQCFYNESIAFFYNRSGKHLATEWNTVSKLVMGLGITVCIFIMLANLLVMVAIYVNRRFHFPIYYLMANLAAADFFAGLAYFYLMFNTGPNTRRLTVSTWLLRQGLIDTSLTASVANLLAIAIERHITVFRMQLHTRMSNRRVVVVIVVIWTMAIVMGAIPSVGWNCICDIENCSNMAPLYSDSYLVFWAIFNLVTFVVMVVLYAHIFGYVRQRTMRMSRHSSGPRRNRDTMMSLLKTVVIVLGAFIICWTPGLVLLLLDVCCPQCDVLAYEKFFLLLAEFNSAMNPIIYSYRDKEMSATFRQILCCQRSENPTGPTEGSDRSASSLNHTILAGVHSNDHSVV
# Excerpt: LPA1 Migration Assay Migration of primary fibroblasts (including lung, dermal), HFL-1, 3T3 and CHO cells expressing LPA1R were monitored using the Oris™ assay (Platypus Technologies, Madison, Wis.). These cells were dye (Cell Tracker Green™) loaded and serum starved for 12-24 hrs. In response to chemoattractants such as LPA and serum, the cells migrated inward in to the exclusion (detection) zone. After fixing, fluorescent cells in the detection zone were counted using a high content reader. The ability of LPA1 antagonists to inhibit cell migration is quantified by plotting cell number vs. compound concentration and curve fitting the resulting dose-response curve to a 4 parameter logistic function.
# T1 sequence (Q92633 whole entry): as above
EC50 [1],EC50 [2],Compound
50 to 500 nM,> 500 nM,C[C@@H](OC(=O)Nc1c(-c2cc3sc(-c4ccc(CC(=O)O)c(Cl)c4)cc3s2)cnn1C)c1ccccc1 [IT165]
< 50 nM,50 to 500 nM,CCOC(=O)c1ccccc1Oc1ccc(-c2ccc(-c3nnn(C)c3NC(=O)O[C@H](C)c3ccccc3)cc2)cc1 [IT477]
> 500 nM,> 500 nM,C[C@@H](OC(=O)Nc1c(-c2cc3sc(-c4ccc(CC(=O)O)cc4N)cc3s2)nnn1C)c1ccccc1 [IT181]
< 50 nM,50 to 500 nM,C[C@@H](OC(=O)Nc1c(-c2cc3sc(-c4ccc(C5(C(=O)O)CC5)cc4Cl)cc3s2)nnn1C)c1ccccc1 [IT390]
> 500 nM,> 500 nM,C[C@@H](OC(=O)Nc1c(-c2cc3sc(-c4ccc(CC(=O)O)cc4Cl)cc3s2)nnn1C)c1ccccc1 [IT168]
< 50 nM,< 50 nM,Cc1noc(-c2ccc(-c3ccc(Oc4ccccc4C(=O)O)c(F)c3)cc2)c1NC(=O)O[C@H](C)c1ccccc1 [IT355]
< 50 nM,50 to 500 nM,Cc1noc(-c2ccc(-c3ccc(OC(C)(C)C(=O)O)c(F)c3)cc2)c1NC(=O)O[C@H](C)c1ccccc1 [IT506]
50 to 500 nM,50 to 500 nM,C[C@@H](OC(=O)Nc1c(C#Cc2cc(F)c(OC3(C(=O)O)CC3)c(F)c2)cnn1C)c1ccccc1 [IT311]
50 to 500 nM,> 500 nM,Cc1noc(-c2ccc(-c3ccc(Oc4ccccc4C(=O)O)nn3)cc2)c1NC(=O)O[C@H](C)c1ccccc1 [IT259]
< 50 nM,50 to 500 nM,Cc1cc(C2(C(=O)O)CC2)ccc1-c1cc2sc(-c3cnn(C)c3NC(=O)O[C@H](C)c3ccccc3)cc2s1 [IT260]
50 to 500 nM,> 500 nM,C[C@@H](OC(=O)Nc1c(-c2cc3sc(-c4cc(F)c(CC(=O)O)c(F)c4)cc3s2)cnn1C)c1ccccc1 [IT157]
> 500 nM,> 500 nM,CCOc1cc(CC(=O)O)ccc1-c1cc2sc(-c3snc(C)c3NC(=O)O[C@H](C)c3ccccc3)cc2s1 [IT192]
50 to 500 nM,> 500 nM,Cc1nnn(-c2ccc(-c3ccc(Oc4cccc(F)c4C(=O)O)cc3)cc2)c1NC(=O)O[C@H](C)c1ccccc1 [IT457]
< 50 nM,> 500 nM,C[C@@H](OC(=O)Nc1c(-c2cc3sc(C#CC4(C(=O)O)CC4)cc3s2)nnn1C)c1ccccc1 [IT145]
50 to 500 nM,> 500 nM,Cc1nsc(-c2cc3sc(-c4cc(F)c(CC(=O)O)c(F)c4)cc3s2)c1NC(=O)O[C@H](C)c1ccccc1 [IT156]
< 50 nM,50 to 500 nM,Cc1nsc(-c2cc3sc(-c4cnc(C5(C(=O)O)CC5)c(F)c4)cc3s2)c1NC(=O)O[C@H](C)c1ccccc1 [IT394]
50 to 500 nM,> 500 nM,C[C@@H](OC(=O)Nc1c(-c2cc3sc(-c4cnc(C5(C(=O)O)CC5)s4)cc3s2)nnn1C)c1ccccc1 [IT189]
< 50 nM,50 to 500 nM,Cc1nnn(-c2ccc(-c3cc(F)c(Oc4cccnc4C(=O)O)c(F)c3)cc2)c1NC(=O)O[C@H](C)c1ccccc1 [IT437]
> 500 nM,> 500 nM,C[C@@H](OC(=O)Nc1c(-c2cc3sc(-c4cc(Cl)c(CC(=O)O)cc4F)cc3s2)nnn1C)c1ccccc1 [IT186]
< 50 nM,< 50 nM,C[C@@H](OC(=O)Nc1c(-c2ccc(-c3ccc(Oc4ccc(F)cc4C(=O)O)cc3)cc2)nnn1C)c1ccccc1 [IT460]
> 500 nM,> 500 nM,C[C@@H](OC(=O)Nc1c(-c2cc3sc(-c4ccc(CC(=O)O)cc4N)cc3s2)cnn1C)c1ccccc1 [IT180]
< 50 nM,50 to 500 nM,Cc1noc(-c2ccc(-c3ccc(S(=O)(=O)NC(=O)C4CC4)cc3)cc2)c1NC(=O)O[C@H](C)c1ccccc1 [IT138]
< 50 nM,50 to 500 nM,Cc1noc(-c2ccc(-c3ccc(Oc4scnc4C(=O)O)cc3)cc2)c1NC(=O)O[C@H](C)c1ccccc1 [IT420]
50 to 500 nM,> 500 nM,C[C@@H](OC(=O)Nc1c(-c2ccc(-c3cc(F)c(OC(C)(C)C(=O)O)c(F)c3)cc2)cnn1C)c1ccccc1 [IT503]
> 500 nM,> 500 nM,Cc1nsc(-c2cc3sc(-c4ccc(CC(=O)O)c(Cl)c4)cc3s2)c1NC(=O)O[C@H](C)c1ccccc1 [IT167]
< 50 nM,50 to 500 nM,C[C@@H](OC(=O)Nc1c(-c2cc3sc(-c4ccc(Oc5ccccc5C(=O)O)cc4)cc3s2)cnn1C)c1ccccc1 [IT406]
50 to 500 nM,> 500 nM,C[C@@H](OC(=O)Nc1c(-c2ccc(-c3ccc(CC(=O)O)s3)cc2)nnn1C)c1ccccc1 [IT178]
50 to 500 nM,50 to 500 nM,Cc1noc(-c2ccc(-c3ccc(Oc4ncsc4C(=O)O)cc3)cc2)c1NC(=O)O[C@H](C)c1ccccc1 [IT417]

# The remaining lines, values behind:
Compound,EC50 [1],EC50 [2]
C[C@@H](OC(=O)Nc1c(-c2cc3sc(-c4ccc(CC(=O)O)c(Cl)c4)cc3s2)nnn1C)c1ccccc1 [IT166],50 to 500 nM,> 500 nM
Cc1cc(C2(C(=O)O)CC2)ccc1-c1cc2sc(-c3nnn(C)c3NC(=O)O[C@H](C)c3ccccc3)cc2s1 [IT291],< 50 nM,50 to 500 nM
CC(=O)N(C(C)=O)S(=O)(=O)c1ccc(-c2ccc(-c3onc(C)c3NC(=O)O[C@H](C)c3ccccc3)cc2)cc1 [IT130],> 500 nM,> 500 nM
CC(=O)NS(=O)(=O)c1ccc(-c2ccc(-c3onc(C)c3NC(=O)O[C@H](C)c3ccccc3)cc2)cc1 [IT131],50 to 500 nM,> 500 nM
Cc1noc(-c2ccc(-c3ccc(Oc4cnccc4C(=O)O)cc3)cc2)c1NC(=O)O[C@H](C)c1ccccc1 [IT257],< 50 nM,50 to 500 nM
Cc1noc(-c2ccc(-c3cc(F)c(Oc4ccsc4C(=O)O)c(F)c3)cc2)c1NC(=O)O[C@H](C)c1ccccc1 [IT463],< 50 nM,< 50 nM
Cc1nnn(-c2ccc(-c3cc(F)c(Oc4ccncc4C(=O)O)c(F)c3)cc2)c1NC(=O)O[C@H](C)c1ccccc1 [IT440],50 to 500 nM,> 500 nM
COc1cc(CC(=O)O)ccc1-c1cc2sc(-c3nnn(C)c3NC(=O)O[C@H](C)c3ccccc3)cc2s1 [IT183],> 500 nM,> 500 nM
Cc1nsc(-c2cc3sc(-c4cc(F)c(C5(C(=O)O)CC5)c(F)c4)cc3s2)c1NC(=O)O[C@H](C)c1ccccc1 [IT263],< 50 nM,50 to 500 nM
Cc1nsc(-c2ccc(-c3cc(F)c(Oc4ccsc4C(=O)O)c(F)c3)cc2)c1NC(=O)O[C@H](C)c1ccccc1 [IT462],< 50 nM,< 50 nM
C[C@@H](OC(=O)Nc1c(-c2cc3sc(-c4cc(F)c(C5(C(=O)O)CC5)cc4F)cc3s2)nnn1C)c1ccccc1 [IT348],< 50 nM,50 to 500 nM
C[C@@H](OC(=O)Nc1c(-c2cc3sc(-c4cc(Cl)c(CC(=O)O)cc4F)cc3s2)cnn1C)c1ccccc1 [IT187],> 500 nM,> 500 nM
Cc1noc(-c2ccc(-c3ccc(Oc4ccsc4C(=O)O)cc3)cc2)c1NC(=O)O[C@H](C)c1ccccc1 [IT428],< 50 nM,50 to 500 nM
C[C@@H](OC(=O)Nc1c(-c2ccc(-c3cc(F)c(Oc4ccsc4C(=O)O)c(F)c3)cc2)cnn1C)c1ccccc1 [IT465],< 50 nM,< 50 nM
COC(=O)c1ccccc1Oc1ccc(-c2ccc(-c3nnn(C)c3NC(=O)O[C@H](C)c3ccccc3)cc2)cc1 [IT478],50 to 500 nM,50 to 500 nM
Cc1noc(-c2ccc(-c3ccc4c(c3)CCCC4C(=O)O)cc2)c1NC(=O)O[C@H](C)c1ccccc1 (mixture of isomers) [IT038],50 to 500 nM,> 500 nM
CNS(=O)(=O)c1ccc(-c2ccc(-c3onc(C)c3NC(=O)O[C@H](C)c3ccccc3)cc2)cc1 [IT128],> 500 nM,> 500 nM
C[C@@H](OC(=O)Nc1c(-c2ccc(-c3ccc(OC4(C(=O)O)CC4)cc3)cc2)oc2ccccc12)c1ccccc1 [IT512],50 to 500 nM,> 500 nM
C[C@@H](OC(=O)Nc1c(-c2ccc(-c3cc(F)c(OC4(C(=O)O)CC4)c(F)c3)cc2)nnn1C)c1ccccc1 [IT312],< 50 nM,50 to 500 nM
Cc1noc(-c2ccc(C#Cc3ccccc3C(=O)O)cc2)c1NC(=O)O[C@H](C)c1ccccc1 [IT154],> 500 nM,> 500 nM
C[C@@H](OC(=O)Nc1c(-c2cc3sc(-c4ccc(CC(=O)O)cc4F)cc3s2)nnn1C)c1ccccc1 [IT159],50 to 500 nM,> 500 nM
C[C@@H](OC(=O)Nc1c(-c2ccc(-c3ccc(Oc4cccc(F)c4C(=O)O)cc3)cc2)nnn1C)c1ccccc1 [IT455],< 50 nM,< 50 nM
Cc1noc(-c2ccc(-c3cc(F)c(OC(C)(C)C(=O)O)c(F)c3)cc2)c1NC(=O)O[C@H](C)c1ccccc1 [IT500],< 50 nM,50 to 500 nM
C[C@@H](OC(=O)Nc1c(-c2ccc(-c3ccc(Oc4ccc(F)cc4C(=O)O)cc3)cc2)cnn1C)c1ccccc1 [IT461],< 50 nM,50 to 500 nM
Cc1nnn(-c2ccc(-c3ccc(Oc4ccccc4C(=O)O)cc3)cc2)c1NC(=O)O[C@H](C)c1ccccc1 [IT310],50 to 500 nM,> 500 nM
Cc1nsc(-c2cc3sc(-c4ccc(CC(=O)O)s4)cc3s2)c1NC(=O)O[C@H](C)c1ccccc1 [IT148],> 500 nM,> 500 nM
C[C@@H](OC(=O)Nc1c(-c2ccc(-c3cc(F)c(OC4(C(=O)O)CC4)c(F)c3)cc2)oc2ccccc12)c1ccccc1 [IT491],50 to 500 nM,> 500 nM
